Results published in patent US11566007B2, “Ras inhibitors” (Revolution Medicines, Inc., priority 2019, dated 2023).
Where “and” joins values, the source holds several entries; their conditions need not be identical. Identical values can stand only once. Like-named read-outs stand apart in the source and are kept apart here.

Experiments:
[1] = system: NCI-H358 cells (K-Ras G12C); assay: Potency assay: pERK in NCI-H358 cells; assay type: cell-based, human; details: Homo sapiens, NCI-H358; H358 KRAS G12C; read-out: pERK EC50
Summary of the method: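 Compounds are dosed as ten 3-fold dilutions from a 10 mM DMSO stock, in duplicate, and left on cells for 4 h at 37 °C, 5% CO2. Phospho-ERK1/2 is then quantified by AlphaLISA SureFire Ultra or In-Cell Western, and IC50 is derived from a 4-parameter sigmoid against log concentration.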

[2] = system: NCI-H358 (K-Ras G12C); assay: CellTiter-Glo cell viability assay, NCI-H358; assay type: cell-based, human; details: NCI-H358, 5-day treatment, class symbols, read-out: Additional H358 Cell Viability assay data (K-Ras G12C, IC50)
Summary of the method: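 Four-parameter logistic fits were applied to luminescence data normalized against DMSO-treated wells. Readings were taken on day 5 following direct compound addition, after roughly 30 minutes at room temperature.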

[3] = molecular target: K-Ras G12C (Homo sapiens (Human), UniProt P01116+P62937, G12C); assay: Ras-Raf (BRAF RBD) disruption / FRET / MOA assay, KRAS G12C; assay type: biochemical; details: KRAS G12C; Ras-Raf disruption/FRET/MOA assay; read-out: IC50* KRAS G12C FRET data
K-Ras G12C, sequence (P01116-2 other isoform, or with tags, fused parts or gaps G12C): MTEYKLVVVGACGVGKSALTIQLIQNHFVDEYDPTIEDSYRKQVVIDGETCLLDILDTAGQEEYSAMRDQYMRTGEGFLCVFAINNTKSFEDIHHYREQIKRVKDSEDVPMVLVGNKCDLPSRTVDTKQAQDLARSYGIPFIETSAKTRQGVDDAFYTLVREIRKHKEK
K-Ras G12C, sequence (P62937 whole entry): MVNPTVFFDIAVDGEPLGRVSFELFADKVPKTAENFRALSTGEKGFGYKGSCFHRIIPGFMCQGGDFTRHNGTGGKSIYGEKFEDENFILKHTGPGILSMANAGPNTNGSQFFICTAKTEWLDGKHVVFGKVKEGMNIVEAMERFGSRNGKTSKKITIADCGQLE
Summary of the method: (§1)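 Ternary complex formation (Ras–compound–cyclophilin A) displacing BRAF RBD, monitored by TR-FRET. Three hours at 25° C with compound (top 30 μM final), then 1.5 h with the labelled antibodies. Lower ratio than DMSO indicates disruption; IC50 reported.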

[4] = molecular target: K-Ras G13C (Homo sapiens (Human), UniProt P01116+P62937, G13C); assay: Ras-Raf (BRAF RBD) disruption / FRET / MOA assay, KRAS G13C; assay type: biochemical; details: KRAS G13C; Ras-Raf disruption/FRET/MOA assay; read-out: IC50* KRAS G13C FRET data
K-Ras G13C, sequence (P01116-2 other isoform, or with tags, fused parts or gaps G13C): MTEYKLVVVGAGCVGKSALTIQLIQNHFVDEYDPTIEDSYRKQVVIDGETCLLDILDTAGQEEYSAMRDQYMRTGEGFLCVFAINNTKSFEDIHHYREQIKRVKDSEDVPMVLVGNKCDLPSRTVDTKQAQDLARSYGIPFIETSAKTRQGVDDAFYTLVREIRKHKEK
K-Ras G13C, sequence (P62937 whole entry): as the sequence (P62937 whole entry) above
Summary of the method: as §1

[5] = molecular target: KRAS G12S (Homo sapiens (Human), UniProt P01116+P62937, G12S); assay: Ras-Raf (BRAF RBD) disruption / FRET / MOA assay, KRAS G12S; assay type: biochemical; details: Ras-Raf disruption/FRET/MOA assay; class symbols; read-out: KRAS G12S FRET data IC50
KRAS G12S, sequence (P01116-2 other isoform, or with tags, fused parts or gaps G12S): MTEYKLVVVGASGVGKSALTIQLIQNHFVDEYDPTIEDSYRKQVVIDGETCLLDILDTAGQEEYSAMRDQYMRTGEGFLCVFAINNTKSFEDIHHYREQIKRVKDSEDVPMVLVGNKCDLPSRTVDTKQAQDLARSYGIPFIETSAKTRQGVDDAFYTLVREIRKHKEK
KRAS G12S, sequence (P62937 whole entry): as the sequence (P62937 whole entry) above
Summary of the method: as §1

[6] = molecular target: KRAS G12D (Homo sapiens (Human), UniProt P01116+P62937, G12D); assay: Ras-Raf (BRAF RBD) disruption / FRET / MOA assay, KRAS G12D; assay type: biochemical; details: Ras-Raf disruption/FRET/MOA assay; class symbols; read-out: KRAS G12D FRET data IC50
KRAS G12D, sequence (P01116-2 other isoform, or with tags, fused parts or gaps G12D): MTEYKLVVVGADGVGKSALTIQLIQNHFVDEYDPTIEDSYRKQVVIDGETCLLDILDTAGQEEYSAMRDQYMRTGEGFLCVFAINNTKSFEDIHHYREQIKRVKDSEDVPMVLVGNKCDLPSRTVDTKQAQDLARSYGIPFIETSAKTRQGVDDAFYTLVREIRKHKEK
KRAS G12D, sequence (P62937 whole entry): as the sequence (P62937 whole entry) above
Summary of the method: as §1

[7] = molecular target: KRAS G12V (Homo sapiens (Human), UniProt P01116+P62937, G12V); assay: Ras-Raf (BRAF RBD) disruption / FRET / MOA assay, KRAS G12V; assay type: biochemical; details: read-out: IC50* KRAS G12V FRET data
KRAS G12V, sequence (P01116-2 other isoform, or with tags, fused parts or gaps G12V): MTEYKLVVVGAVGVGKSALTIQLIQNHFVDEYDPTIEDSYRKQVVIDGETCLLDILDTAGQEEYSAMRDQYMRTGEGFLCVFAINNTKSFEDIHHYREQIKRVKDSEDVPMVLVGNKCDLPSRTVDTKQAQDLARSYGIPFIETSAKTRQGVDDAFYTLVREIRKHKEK
KRAS G12V, sequence (P62937 whole entry): as the sequence (P62937 whole entry) above
Summary of the method: as §1

[8] = molecular target: KRAS WT (Homo sapiens (Human), UniProt P01116+P62937); assay: Ras-Raf (BRAF RBD) disruption / FRET / MOA assay, KRAS WT; assay type: biochemical; details: read-out: IC50* KRAS WT FRET data
KRAS WT, sequence (P01116-2 other isoform, or with tags, fused parts or gaps): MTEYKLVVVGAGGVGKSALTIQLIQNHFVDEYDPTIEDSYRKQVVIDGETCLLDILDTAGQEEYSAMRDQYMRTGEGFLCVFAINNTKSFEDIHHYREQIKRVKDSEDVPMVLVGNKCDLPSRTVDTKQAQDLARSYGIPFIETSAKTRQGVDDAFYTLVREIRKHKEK
KRAS WT, sequence (P62937 whole entry): as the sequence (P62937 whole entry) above
Summary of the method: as §1

[9] = molecular target: KRAS G13D (Homo sapiens (Human), UniProt P01116+P62937, G13D); assay: Ras-Raf (BRAF RBD) disruption / FRET / MOA assay, KRAS G13D; assay type: biochemical; details: read-out: IC50* KRAS G13D FRET data
KRAS G13D, sequence (P01116-2 other isoform, or with tags, fused parts or gaps G13D): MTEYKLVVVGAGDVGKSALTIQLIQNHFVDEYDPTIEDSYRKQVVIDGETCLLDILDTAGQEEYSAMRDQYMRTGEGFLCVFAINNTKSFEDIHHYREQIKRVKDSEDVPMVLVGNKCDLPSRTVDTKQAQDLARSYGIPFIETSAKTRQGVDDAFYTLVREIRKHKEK
KRAS G13D, sequence (P62937 whole entry): as the sequence (P62937 whole entry) above
Summary of the method: as §1

[10] = molecular target: NRAS G12C (Homo sapiens (Human), UniProt P01111+P62937, G12C); assay: Ras-Raf (BRAF RBD) disruption / FRET / MOA assay, NRAS G12C; assay type: biochemical; details: read-out: IC50* NRAS G12C FRET data
NRAS G12C, sequence (P01111 whole entry G12C): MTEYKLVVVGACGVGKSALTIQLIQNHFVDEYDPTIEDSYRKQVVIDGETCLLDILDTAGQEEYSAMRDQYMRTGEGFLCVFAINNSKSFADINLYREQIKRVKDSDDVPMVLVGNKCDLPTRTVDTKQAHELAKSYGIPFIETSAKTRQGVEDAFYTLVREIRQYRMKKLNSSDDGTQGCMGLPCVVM
NRAS G12C, sequence (P62937 whole entry): as the sequence (P62937 whole entry) above
Summary of the method: as §1

| Compound | EC50 [1] [µM] | IC50 ([2]; Homo sapiens, NCI-H358, 120 h) [µM] | IC50 [3] | IC50 [4] | IC50 [5] | IC50 [6] | IC50 [7] | IC50 [8] | IC50 [9] | IC50 [10] | IC50 [2] [µM] |
| --- | --- | --- | --- | --- | --- | --- | --- | --- | --- | --- | --- |
| CCn1c(-c2cccnc2[C@H](C)OC)c2c3cc(ccc31)-c1cccc(c1)C[C@H](NC(=O)[C@H](C(C)C)N(C)C(=O)[C@H]1CCN(C(=O)C#CCN(C)C)C1)C(=O)N1CCC[C@H](N1)C(=O)OCC(C)(C)C2 (atropisomer, axis not shown) [Example A121] | < 5 | 0.01 to 0.1 | 0.01 to 0.1 µM and < 0.01 µM | 0.01 to 0.1 µM and 1 to 10 µM | 1 to 10 µM and > 10 µM | 1 to 10 µM | 1 to 10 µM and > 10 µM | 1 to 10 µM and > 10 µM | 1 to 10 µM | 0.01 to 0.1 µM and < 0.01 µM |  |
| C=CS(=O)(=O)N1CC[C@H](C(=O)N(C)[C@H](C(=O)N[C@H]2Cc3cccc(c3)-c3ccc4c(c3)c(c(-c3cccnc3[C@H](C)OC)n4CC)CC(C)(C)COC(=O)[C@@H]3CCCN(N3)C2=O)C(C)C)C1 (atropisomer, axis not shown) [Example A124] | < 5 | 0.01 to 0.1 | 0.01 to 0.1 µM and 1 to 10 µM | 0.01 to 0.1 µM and 1 to 10 µM | 1 to 10 µM and > 10 µM | > 10 µM | 1 to 10 µM and > 10 µM | 1 to 10 µM and > 10 µM | > 10 µM | 0.01 to 0.1 µM and 1 to 10 µM |  |
| CCn1c(-c2cccnc2[C@H](C)OC)c2c3cc(ccc31)-c1cc(O)cc(c1)C[C@H](NC(=O)[C@H](C(C)C)N(C)C(=O)[C@H]1CCN(C(=O)C#CCN(C)C)C1)C(=O)N1CCC[C@H](N1)C(=O)OCC(C)(C)C2 (atropisomer, axis not shown) [Example A131] | < 5 | < 0.01 | < 0.01 µM | 0.01 to 0.1 µM and < 0.01 µM | 0.1 to 1 µM and 1 to 10 µM | 1 to 10 µM and 0.1 to 1 µM | 0.1 to 1 µM and 1 to 10 µM | 0.1 to 1 µM and 1 to 10 µM | 0.1 to 1 µM and 1 to 10 µM | < 0.01 µM |  |
| CCn1c(-c2cccnc2COC)c2c3cc(ccc31)-c1cc(O)cc(c1)C[C@H](NC(=O)[C@H](C(C)C)N(C)C(=O)[C@H]1CCC(C(=O)/C=C\CN(C)C)C1)C(=O)N1CCC[C@H](N1)C(=O)OCC(C)(C)C2 (stereo partly drawn) [Example A161] |  |  | 0.1 to 1 µM | 1 to 10 µM | 1 to 10 µM | > 10 µM | 1 to 10 µM | 1 to 10 µM | 1 to 10 µM | 0.1 to 1 µM | > 1 |
| COCc1ncccc1-c1nc2ccc3cc2n1CC(C)(C)COC(=O)[C@@H]1CCCN(N1)C(=O)[C@@H](NC(=O)[C@H](C(C)C)N(C)C(=O)[C@H]1CCN(C(=O)C#CCN2CCOCC2)C1)Cc1cc(O)cc-3c1 [Example A188] |  | > 1 | 0.1 to 1 µM | > 10 µM | > 10 µM | > 10 µM | > 10 µM | > 10 µM | > 10 µM | 0.1 to 1 µM |  |
| C=CC(=O)N1CC[C@H](C(=O)Nc2ccccc2C(=O)N[C@H]2Cc3cc(O)cc(c3)-c3ccc4c(c3)c(c(-c3cnccc3COC)n4CC)CC(C)(C)COC(=O)[C@@H]3CCCN(N3)C2=O)C1 [Example A229] |  | > 1 | 0.1 to 1 µM | > 10 µM | > 10 µM | > 10 µM | > 10 µM | > 10 µM | > 10 µM | 1 to 10 µM |  |
| C=CC(=O)N1CC[C@H](C(=O)N(C)[C@H](C(=O)N(C)[C@H]2Cc3cc(O)cc(c3)-c3ccc4c(c3)c(c(-c3cccnc3COC)n4CC)CC(C)(C)COC(=O)[C@@H]3CCCN(N3)C2=O)C(C)C)C1 [Example A230] |  | > 1 | > 10 µM | > 10 µM | > 10 µM | > 10 µM | > 10 µM | > 10 µM | > 10 µM | > 10 µM |  |
| C=CC(=O)N1CC[C@H](C(=O)N(C)[C@H](C(=O)N[C@H]2Cc3cc(OC4O[C@H](CO)[C@@H](O)[C@H](O)[C@H]4O)cc(c3)-c3ccc4c(c3)c(c(-c3cccnc3COC)n4CC)CC(C)(C)COC(=O)[C@@H]3CCCN(N3)C2=O)C(C)C)C1 (stereo partly drawn) [Example A234] |  | > 1 | > 10 µM | > 10 µM | > 10 µM | > 10 µM | > 10 µM | > 10 µM | > 10 µM | > 10 µM |  |
| C=CC(=O)N1CC(O[C@H](C(=O)N[C@H]2Cc3cc(O)cc(c3)-c3ccc4c(c3)c(c(-c3cccnc3COC)n4CC)CC(C)(C)COC(=O)[C@@H]3CCCN(N3)C2=O)C(C)C)C1 [Example A235] |  | > 1 | 1 to 10 µM | 1 to 10 µM | > 10 µM | > 10 µM | > 10 µM | > 10 µM | > 10 µM | 1 to 10 µM |  |
| C=CC(=O)N1CC[C@H](C(=O)N(C)[C@H](C(=O)N[C@H]2CC3=NN=C(S3)c3ccc4c(c3)c(c(-c3cccnc3COC)n4CC)CC(C)(C)COC(=O)[C@@H]3CCCN(N3)C2=O)C(C)C)C1 [Example A236] |  | > 1 | > 10 µM | > 10 µM | > 10 µM | > 10 µM | > 10 µM | > 10 µM | > 10 µM | > 10 µM |  |
| C=CC(=O)N1CC[C@H](C(=O)N(C)[C@H](C(=O)N[C@H]2CN(C)C(=O)Cc3ccc4c(c3)c(c(-c3cccnc3COC)n4CC)CC(C)(C)COC(=O)[C@@H]3CCCN(N3)C2=O)C(C)C)C1 [Example A239] |  | > 1 | > 10 µM | > 10 µM | > 10 µM | > 10 µM | > 10 µM | > 10 µM | > 10 µM | > 10 µM |  |
| C=CC(=O)N1CC[C@H](C(=O)N(C)[C@H](C(=O)N[C@@H]2C(=O)N3CCC[C@H](N3)C(=O)OCC(C)(C)Cc3c(-c4cncnc4)n(CC)c4ccc(cc34)-c3cccc(c3)[C@@H]2OC)C(C)C)C1 [Example A271] |  | > 1 | > 10 µM | > 10 µM | > 10 µM | > 10 µM | > 10 µM | > 10 µM | > 10 µM | > 10 µM |  |
| C=CC(=O)N1CC[C@H](C(=O)N(C)[C@H](C(=O)N[C@@H]2C(=O)N3CCC[C@H](N3)C(=O)OCC(C)(C)Cc3c(-c4cncnc4)n(CC)c4ccc(cc34)-c3cccc(c3)[C@H]2OC)C(C)C)C1 [Example A273] |  | > 1 | > 10 µM | > 10 µM | > 10 µM | > 10 µM | > 10 µM | > 10 µM | > 10 µM | > 10 µM |  |
| CC#CC(=O)N1CC[C@H](C(=O)N(C)[C@H](C(=O)N[C@H]2Cc3nc(cs3)-c3ccc4c(c3)c(c(-c3cccnc3[C@H](C)OC)n4C(C)=O)CC(C)(C)COC(=O)[C@@H]3CCCN(N3)C2=O)C(C)C)C1 [Example A293] |  | > 1 | > 10 µM | > 10 µM | > 10 µM | > 10 µM | > 10 µM | > 10 µM | > 10 µM | > 10 µM |  |
| CO[C@@H](C)c1ncccc1-c1nc2ccc3cn2c1CC(C)(C)COC(=O)[C@@H]1CCCN(N1)C(=O)[C@@H](NC(=O)[C@H](C(C)C)N(C)C(=O)[C@H]1CCN(C(=O)C#CC(C)(C)N(C)C)C1)Cc1cccc-3c1 [Example A311] |  | > 1 | > 10 µM | > 10 µM | > 10 µM | > 10 µM | > 10 µM | > 10 µM | > 10 µM | > 10 µM |  |
| C=CC(=O)N1CC[C@H](C(=O)N(C)[C@H](C(=O)NC2C[C@@H]3CN(CCO3)c3ccc4c(c3)c(c(-c3cccnc3[C@H](C)OC)n4CC)CC(C)(C)COC(=O)[C@@H]3CCCN(N3)C2=O)C(C)C)C1 (stereo partly drawn) [Example A312] |  | > 1 | > 10 µM | > 10 µM | > 10 µM | > 10 µM | > 10 µM | > 10 µM | > 10 µM | > 10 µM |  |
| C=CC(=O)N1CC[C@H](C(=O)N(C)[C@H](C(=O)N[C@H]2Cc3cccc(c3)-c3ccc4c(c3)c(c(-c3cc(CN(C)C)cnc3[C@H](C)OC)n4CC)CC(C)(C)COC(=O)[C@@H]3CCCN(N3)C2=O)C(C)C)C1 [Example A523] |  | 0.1 to 1 | 1 to 10 µM | > 10 µM | > 10 µM | > 10 µM | > 10 µM | > 10 µM | > 10 µM | 1 to 10 µM |  |
